Data published in ChEMBL document CHEMBL2074112 (Br J Cancer, 1996).

Target: ATP-dependent translocase ABCB1 (Homo sapiens, UniProt P08183)
Assay: TP_TRANSPORTER: increase in Rhodamine 123 intracellular accumulation (R123: 1.66 uM, Staurosporine: 80 uM) in MCF7/Adr cells
Assay type: functional, cell-based
Settings: nci/adr-res

ATP-dependent translocase ABCB1, sequence (P08183 whole entry): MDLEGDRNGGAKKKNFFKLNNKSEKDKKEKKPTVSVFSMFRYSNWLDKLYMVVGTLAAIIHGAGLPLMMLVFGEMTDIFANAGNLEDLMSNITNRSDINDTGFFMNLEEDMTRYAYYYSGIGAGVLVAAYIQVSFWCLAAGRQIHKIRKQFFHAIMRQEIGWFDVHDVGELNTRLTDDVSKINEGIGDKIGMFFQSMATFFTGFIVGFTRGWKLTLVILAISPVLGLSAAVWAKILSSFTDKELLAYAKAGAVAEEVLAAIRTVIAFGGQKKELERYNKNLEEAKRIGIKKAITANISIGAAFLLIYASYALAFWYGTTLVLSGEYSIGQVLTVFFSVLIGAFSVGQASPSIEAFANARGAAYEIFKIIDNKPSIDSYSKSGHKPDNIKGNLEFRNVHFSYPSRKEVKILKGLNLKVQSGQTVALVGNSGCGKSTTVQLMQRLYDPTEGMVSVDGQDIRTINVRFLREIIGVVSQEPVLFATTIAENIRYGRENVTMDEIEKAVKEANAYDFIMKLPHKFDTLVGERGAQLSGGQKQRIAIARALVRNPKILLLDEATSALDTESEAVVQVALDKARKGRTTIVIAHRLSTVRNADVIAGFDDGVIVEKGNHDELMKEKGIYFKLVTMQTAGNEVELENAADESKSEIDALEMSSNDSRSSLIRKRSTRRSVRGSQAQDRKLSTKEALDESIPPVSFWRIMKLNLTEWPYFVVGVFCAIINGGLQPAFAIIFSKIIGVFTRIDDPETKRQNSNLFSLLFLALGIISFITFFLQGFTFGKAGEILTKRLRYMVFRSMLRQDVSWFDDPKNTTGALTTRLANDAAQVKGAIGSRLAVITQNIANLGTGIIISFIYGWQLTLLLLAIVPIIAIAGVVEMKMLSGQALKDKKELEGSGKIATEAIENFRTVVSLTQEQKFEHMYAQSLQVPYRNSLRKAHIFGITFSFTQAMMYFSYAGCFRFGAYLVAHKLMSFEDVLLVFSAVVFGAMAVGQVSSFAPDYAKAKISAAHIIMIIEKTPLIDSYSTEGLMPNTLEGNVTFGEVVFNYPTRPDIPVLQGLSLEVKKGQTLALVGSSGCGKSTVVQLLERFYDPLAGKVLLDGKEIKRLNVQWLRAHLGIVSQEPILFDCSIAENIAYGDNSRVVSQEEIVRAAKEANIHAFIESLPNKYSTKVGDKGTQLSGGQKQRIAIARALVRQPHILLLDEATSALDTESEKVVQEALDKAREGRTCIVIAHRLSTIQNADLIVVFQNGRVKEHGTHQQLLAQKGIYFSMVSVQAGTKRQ

CN[C@@H]1C[C@H]2O[C@@](C)([C@@H]1OC)n1c3ccccc3c3c4c(c5c6ccccc6n2c5c31)C(=O)NC4 [STAUROSPORINE]
Activity: 140%
